Laboratory results as given in ChEMBL document CHEMBL1909046, “DrugMatrix in vitro pharmacology data”.

What was measured:
[1] = target: T1, Muscarinic acetylcholine receptor M2 (Homo sapiens, UniProt P08172); type: cell membranes, CHO-K1, Membrane; further: in other assays of this panel Not Active means under 50% inhibition at 10 µM
T1 sequence (P08172 whole entry): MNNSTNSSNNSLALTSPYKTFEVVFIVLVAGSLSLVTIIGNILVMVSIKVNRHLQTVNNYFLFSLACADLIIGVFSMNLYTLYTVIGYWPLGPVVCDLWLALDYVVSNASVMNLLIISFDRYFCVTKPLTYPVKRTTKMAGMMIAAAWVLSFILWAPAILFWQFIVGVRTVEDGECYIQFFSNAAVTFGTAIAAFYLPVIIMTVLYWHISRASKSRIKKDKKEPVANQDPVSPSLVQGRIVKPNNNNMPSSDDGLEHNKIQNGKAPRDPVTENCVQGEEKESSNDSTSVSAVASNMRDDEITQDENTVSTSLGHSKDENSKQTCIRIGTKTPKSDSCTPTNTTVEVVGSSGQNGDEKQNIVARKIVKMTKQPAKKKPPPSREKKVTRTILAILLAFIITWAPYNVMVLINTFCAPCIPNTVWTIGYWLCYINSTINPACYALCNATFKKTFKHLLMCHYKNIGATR

[2] = target: Sodium-dependent dopamine transporter (Homo sapiens, UniProt Q01959); test: DRUGMATRIX: Dopamine Transporter radioligand binding (ligand: [125I] RTI-55); type: cell membranes, CHO-K1, Membrane; conditions: cho-k1; Not Active = under 50% inhibition at 10 µM
[3] = target: T2, Angiotensin-converting enzyme (Oryctolagus cuniculus, UniProt P12822); type: tissue-based, Lung;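 further: enzymatic inhibition of angiotensin-converting enzyme measured with FAPGG as the substrate; in other assays of this panel Not Active means under 50% inhibition at 10 µM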
T2 sequence (P12822 whole entry): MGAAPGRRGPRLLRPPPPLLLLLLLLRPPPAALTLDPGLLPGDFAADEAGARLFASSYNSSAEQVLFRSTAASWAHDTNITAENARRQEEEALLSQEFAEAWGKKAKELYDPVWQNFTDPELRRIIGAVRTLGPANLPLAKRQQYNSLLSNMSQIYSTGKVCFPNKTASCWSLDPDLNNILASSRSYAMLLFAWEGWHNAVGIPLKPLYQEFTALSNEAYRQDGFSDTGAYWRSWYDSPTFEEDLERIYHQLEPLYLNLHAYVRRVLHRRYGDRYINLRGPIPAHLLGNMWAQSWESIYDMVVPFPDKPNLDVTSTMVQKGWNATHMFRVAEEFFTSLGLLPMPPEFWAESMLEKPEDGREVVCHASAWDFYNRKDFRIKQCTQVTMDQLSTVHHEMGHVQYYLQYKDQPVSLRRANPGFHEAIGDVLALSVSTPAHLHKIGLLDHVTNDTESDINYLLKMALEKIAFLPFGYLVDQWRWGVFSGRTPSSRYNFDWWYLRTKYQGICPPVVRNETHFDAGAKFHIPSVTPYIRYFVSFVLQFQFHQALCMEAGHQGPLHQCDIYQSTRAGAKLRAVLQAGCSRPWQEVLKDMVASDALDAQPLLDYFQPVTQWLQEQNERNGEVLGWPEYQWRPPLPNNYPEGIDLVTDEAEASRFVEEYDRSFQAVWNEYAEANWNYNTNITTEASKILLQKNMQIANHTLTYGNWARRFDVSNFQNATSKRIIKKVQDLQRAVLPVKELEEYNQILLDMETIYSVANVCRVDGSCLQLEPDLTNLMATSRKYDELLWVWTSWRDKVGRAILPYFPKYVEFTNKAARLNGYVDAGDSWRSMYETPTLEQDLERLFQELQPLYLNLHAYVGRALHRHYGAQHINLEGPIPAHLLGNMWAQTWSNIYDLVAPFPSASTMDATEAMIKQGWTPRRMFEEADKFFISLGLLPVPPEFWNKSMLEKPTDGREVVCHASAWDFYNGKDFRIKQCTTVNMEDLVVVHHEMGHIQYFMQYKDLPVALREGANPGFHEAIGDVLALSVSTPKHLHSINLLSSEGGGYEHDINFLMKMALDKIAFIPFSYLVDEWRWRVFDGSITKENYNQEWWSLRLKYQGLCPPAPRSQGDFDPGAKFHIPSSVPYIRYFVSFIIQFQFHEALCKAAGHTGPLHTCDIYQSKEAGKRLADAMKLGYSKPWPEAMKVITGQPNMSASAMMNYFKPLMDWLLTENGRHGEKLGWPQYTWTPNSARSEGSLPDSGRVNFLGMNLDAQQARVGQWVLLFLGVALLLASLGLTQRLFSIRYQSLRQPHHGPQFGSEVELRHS

Progesterone receptor = target: T3, Progesterone receptor (Bos taurus, UniProt Q690N0); test: DRUGMATRIX: Progesterone radioligand binding (ligand: [3H] R-5020); type: tissue-based, Uterus; conditions: Not Active = under 50% inhibition at 10 µM; for Ki: read-out: Ki
T3 sequence (Q690N0 whole entry): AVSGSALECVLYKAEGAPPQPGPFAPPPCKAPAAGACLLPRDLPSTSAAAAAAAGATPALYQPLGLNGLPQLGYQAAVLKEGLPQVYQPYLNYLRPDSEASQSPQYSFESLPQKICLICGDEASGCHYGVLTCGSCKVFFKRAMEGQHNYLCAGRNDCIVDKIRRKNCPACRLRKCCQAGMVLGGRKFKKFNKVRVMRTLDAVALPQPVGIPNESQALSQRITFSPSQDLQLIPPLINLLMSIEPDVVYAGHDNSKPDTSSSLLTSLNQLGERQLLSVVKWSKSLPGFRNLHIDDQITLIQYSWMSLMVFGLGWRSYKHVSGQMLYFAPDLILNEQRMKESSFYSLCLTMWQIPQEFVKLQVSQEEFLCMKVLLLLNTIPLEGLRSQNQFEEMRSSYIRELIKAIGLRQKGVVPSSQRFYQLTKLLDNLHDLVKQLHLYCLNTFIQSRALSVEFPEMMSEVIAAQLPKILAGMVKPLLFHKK

B2 bradykinin receptor = target: T4, B2 bradykinin receptor (Homo sapiens, UniProt P30411); type: cell membranes, Membrane; conditions: chem-1; further: in other assays of this panel Not Active means under 50% inhibition at 10 µM
T4 sequence (P30411 whole entry): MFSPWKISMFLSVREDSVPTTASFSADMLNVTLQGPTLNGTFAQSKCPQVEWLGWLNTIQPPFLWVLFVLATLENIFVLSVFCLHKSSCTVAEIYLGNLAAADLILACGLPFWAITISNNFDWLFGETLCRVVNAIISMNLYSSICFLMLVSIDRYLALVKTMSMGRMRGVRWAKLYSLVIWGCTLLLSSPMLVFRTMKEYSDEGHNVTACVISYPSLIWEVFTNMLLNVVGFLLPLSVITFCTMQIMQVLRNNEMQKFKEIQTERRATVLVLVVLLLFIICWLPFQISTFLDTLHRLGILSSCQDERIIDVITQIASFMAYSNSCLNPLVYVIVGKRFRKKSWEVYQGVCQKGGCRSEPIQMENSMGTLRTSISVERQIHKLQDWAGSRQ

[4] = target: Kappa-type opioid receptor (Homo sapiens, UniProt P41145); test: DRUGMATRIX: Opiate kappa (OP2, KOP) radioligand binding (ligand: [3H] Diprenorphine); type: cell membranes, HEK293, Membrane; conditions: hek293; Not Active = under 50% inhibition at 10 µM
Kappa-type opioid receptor, sequence (P41145 whole entry): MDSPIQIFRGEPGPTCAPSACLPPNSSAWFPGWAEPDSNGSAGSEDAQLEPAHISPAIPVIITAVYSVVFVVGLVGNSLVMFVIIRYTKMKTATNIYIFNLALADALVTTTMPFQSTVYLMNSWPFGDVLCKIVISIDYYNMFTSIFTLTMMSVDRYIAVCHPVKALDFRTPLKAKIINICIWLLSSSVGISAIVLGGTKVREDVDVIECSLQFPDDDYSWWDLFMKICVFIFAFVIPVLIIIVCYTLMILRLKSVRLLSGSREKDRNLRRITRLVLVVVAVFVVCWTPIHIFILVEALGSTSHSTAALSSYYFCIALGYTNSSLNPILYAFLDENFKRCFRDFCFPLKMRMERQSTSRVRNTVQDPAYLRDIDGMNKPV

Sodium-dependent dopamine transporter, sequence (Q01959 whole entry): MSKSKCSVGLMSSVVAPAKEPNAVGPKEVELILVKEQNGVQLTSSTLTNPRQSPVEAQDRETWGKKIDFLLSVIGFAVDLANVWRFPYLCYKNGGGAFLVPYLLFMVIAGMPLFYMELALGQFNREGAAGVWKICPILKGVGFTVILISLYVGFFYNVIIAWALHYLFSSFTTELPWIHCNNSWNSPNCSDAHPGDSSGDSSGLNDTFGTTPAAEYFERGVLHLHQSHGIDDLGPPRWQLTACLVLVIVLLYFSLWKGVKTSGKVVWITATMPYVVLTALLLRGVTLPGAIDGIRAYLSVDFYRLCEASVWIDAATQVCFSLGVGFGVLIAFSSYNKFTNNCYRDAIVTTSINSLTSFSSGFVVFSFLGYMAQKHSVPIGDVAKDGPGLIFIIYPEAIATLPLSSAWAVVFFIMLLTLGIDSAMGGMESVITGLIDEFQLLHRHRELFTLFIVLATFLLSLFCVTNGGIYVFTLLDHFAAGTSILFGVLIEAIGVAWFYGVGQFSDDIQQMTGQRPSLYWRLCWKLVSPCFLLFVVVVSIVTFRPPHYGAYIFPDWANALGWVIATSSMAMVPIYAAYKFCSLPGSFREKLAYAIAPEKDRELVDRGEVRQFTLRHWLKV

Structure (SMILES)	IC50 ([1]; cho-k1)	IC50 [2]	IC50 [3]	IC50 (Progesterone receptor)	IC50 (B2 bradykinin receptor)	IC50 [4]	IC50 (Progesterone receptor; read-out: IC50) [nM]	Ki (Progesterone receptor) [nM]	IC50 ([1]; read-out: IC50) [nM]	Ki ([1]; read-out: Ki) [nM]
C[C@]12CCC(=O)C=C1CC[C@@H]1[C@@H]2[C@@H](O)C[C@@]2(C)[C@H]1CC[C@]2(O)C(=O)CO [HYDROCORTISONE]	Not Active	Not Active	Not Active	Not Active	Not Active	Not Active				
OCCO [ETHYLENE GLYCOL]	Not Active	Not Active	Not Active	Not Active	Not Active	Not Active				
CCN[C@@H](C)Cc1cccc(C(F)(F)F)c1 [DEXFENFLURAMINE]	Not Active	Not Active	Not Active	Not Active	Not Active	Not Active				
C[C@]12C/C(=C/O)C(=O)C[C@@H]1CC[C@@H]1[C@@H]2CC[C@@]2(C)[C@H]1CC[C@]2(C)O [OXYMETHOLONE]	Not Active	Not Active	Not Active	Not Active	Not Active	Not Active				
C=C(CC)C(=O)c1ccc(OCC(=O)O)c(Cl)c1Cl [ETHACRYNIC ACID]	Not Active	Not Active	Not Active	Not Active	Not Active	Not Active				
CCc1oc2ccccc2c1C(=O)c1cc(Br)c(O)c(Br)c1 [BENZBROMARONE]	Not Active	Not Active	Not Active	Not Active	Not Active	Not Active				
CC[C@H]1OC(=O)[C@H](C)[C@@H](O[C@H]2C[C@@](C)(OC)[C@@H](O)[C@H](C)O2)[C@H](C)[C@@H](O[C@@H]2O[C@H](C)C[C@H](N(C)C)[C@H]2O)[C@](C)(OC)C[C@@H](C)C(=O)[C@H](C)[C@@H](O)[C@]1(C)O [CLARITHROMYCIN]	Not Active	Not Active	Not Active	Not Active	Not Active	Not Active				
CC(=O)O[C@]1(C(C)=O)CC[C@H]2[C@@H]3C=C(C)C4=CC(=O)CC[C@]4(C)[C@H]3CC[C@@]21C [MEGESTROL ACETATE]	Not Active	Not Active	Not Active		Not Active	Not Active	11	1.44		
CC(=O)O[C@]1(C(C)=O)CC[C@H]2[C@@H]3C=C(Cl)C4=CC(=O)[C@@H]5C[C@@H]5[C@]4(C)[C@H]3CC[C@@]21C [CYPROTERONE ACETATE]	Not Active	Not Active	Not Active		Not Active	Not Active	37	4.84		
CC(C)(Oc1ccc(C2CC2(Cl)Cl)cc1)C(=O)O (stereo not given) [CIPROFIBRATE]	Not Active	Not Active	Not Active	Not Active	Not Active	Not Active				
Cc1cnc(C(=O)NCCc2ccc(S(=O)(=O)NC(=O)NC3CCCCC3)cc2)cn1 [GLIPIZIDE]	Not Active	Not Active	Not Active	Not Active	Not Active	Not Active				
CC(C)(C)c1ccc(S(=O)(=O)/C=C/C#N)cc1 [BAY-11-7085]	Not Active	Not Active	Not Active	Not Active	Not Active	Not Active				
Cc1cccc(Nc2ccccc2C(=O)O)c1C [MEFENAMIC ACID]	Not Active	Not Active	Not Active	Not Active	Not Active	Not Active				
NC[C@@H]1O[C@H](O[C@H]2[C@@H](O)[C@H](O[C@@H]3[C@@H](O)[C@H](N)C[C@H](N)[C@H]3O[C@H]3O[C@H](CN)[C@@H](O)[C@H](O)[C@H]3N)O[C@@H]2CO)[C@H](N)[C@@H](O)[C@@H]1O [FRAMYCETIN]	Not Active	Not Active	Not Active	Not Active	Not Active	Not Active				
O=C(O)c1cccnc1 [NIACIN]	Not Active	Not Active	Not Active	Not Active	Not Active	Not Active				
CC[C@]1(O)CC[C@H]2[C@@H]3CCC4=CCCC[C@@H]4[C@H]3CC[C@@]21C		Not Active	Not Active		Not Active	Not Active	201	26	292	104
COc1cc(CNC(=O)CCCC/C=C/C(C)C)ccc1O [CAPSAICIN]	Not Active	Not Active	Not Active	Not Active	Not Active	Not Active				
CN(C(=O)CCCOc1ccc2[nH]c(=O)ccc2c1)C1CCCCC1 [CILOSTAMIDE]	Not Active	Not Active	Not Active	Not Active	Not Active	Not Active				
CC(=O)OCC(CCn1cnc2cnc(N)nc21)COC(C)=O [FAMCICLOVIR]	Not Active	Not Active	Not Active	Not Active	Not Active	Not Active				
OCCN1CCN(CCCN2c3ccccc3Sc3ccc(Cl)cc32)CC1 [PERPHENAZINE]	Not Active	Not Active	Not Active	Not Active	Not Active	Not Active				
COC(=O)c1ccccc1O [METHYL SALICYLATE]	Not Active	Not Active	Not Active	Not Active	Not Active	Not Active				
